Measurements: patent US11000033B2, “Ketone or oxime compound, and herbicide” (NISSAN CHEMICAL CORPORATION, priority 2014, dated 2021)

How the values were obtained:
Type in all cases: in vivo
Scirpus juncoides [1] = test: Test Example 1: herbicidal activity, application before weed generation in submerged conditions (symbol B); conditions: application herbicide amount 320 g/ha
Procedure, shortened: (§1)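 Flooded alluvial soil (4 cm water) was mixed-sown with the three weed species, and 2.5-leaf rice seedlings were transplanted. On sowing day, a water-diluted emulsion at a predetermined rate was applied to the water surface. After 3 weeks in a 25–30 °C greenhouse, effect was scored 0–5.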

Monochoria vaginalis [2] = test: Test Example 1: herbicidal activity, application before weed generation in submerged conditions (symbol C); conditions: application herbicide amount 320 g/ha
Procedure, shortened: as §1

Scirpus juncoides [3] = test: Test Example 2: herbicidal activity, application during weed generation in submerged conditions (symbol B); conditions: Table 23; application herbicide amount 320 g/ha; grade 0-5 by criteria of Test Example 1
Procedure, shortened: (§2)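 Scoring of herbicidal effect took place 3 weeks after treatment, using the criteria of the earlier test. Treatment was water-surface application of diluted emulsifiable compound at a set dose. Plants were at one- to two-leaf stage in submerged alluvial soil (4 cm depth), greenhouse 25-30° C.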

Monochoria vaginalis [4] = test: Test Example 2: herbicidal activity, application during weed generation in submerged conditions (symbol C); conditions: Table 23; application herbicide amount 320 g/ha; grade 0-5 by criteria of Test Example 1
Procedure, shortened: as §2

Digitaria ciliaris = test: Test Example 4: herbicidal effect by soil treatment (symbol F); conditions: application herbicide amount 320 g/ha
Procedure, shortened: (§3)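 Seeds were sown in sterilized diluvial soil, covered with about 1.5 cm of soil, and the soil surface was sprayed with a water-diluted emulsion of the compound at a predetermined rate. Plants grew in a greenhouse at 25° C. to 30° C.; effects were scored visually 3 weeks after application.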

[5] = system: Echinochloa crus-galli var. crus-galli; test: Test Example 4: herbicidal effect by soil treatment (symbol H); conditions: application herbicide amount 320 g/ha
Procedure, shortened: as §3

Apera spica-venti [6] = test: Test Example 4: herbicidal effect by soil treatment (symbol L); conditions: application herbicide amount 320 g/ha
Procedure, shortened: as §3

rapeseed [7] = test: Test Example 4: effect on crop by soil treatment (symbol g); conditions: application herbicide amount 320 g/ha
Procedure, shortened: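 Crop seeds, among them rice, wheat, beet and rapeseed, were sown in sterilized diluvial soil and covered with about 1.5 cm of soil. Boxes were kept in a greenhouse at 25° C. to 30° C. for plant growth.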

Setaria viridis = test: Test Example 5: herbicidal effect by foliage application, plastic box (symbol G); conditions: 320 g/ha, 3 weeks after application
Procedure, shortened: (§4)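 Seeds were sown in sterilized diluvial soil, covered with about 1.5 cm of soil and grown 14 days in a greenhouse at 25° C. to 30° C. An emulsifiable formulation diluted in water to a set rate was sprayed over foliage, and injury was scored 3 weeks later.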

Lolium multiflorum Lam. = test: Test Example 5: herbicidal effect by foliage application, plastic box (symbol K); conditions: 320 g/ha, 3 weeks after application
Procedure, shortened: as §4

Apera spica-venti [8] = test: Test Example 5: herbicidal effect by foliage application, plastic box (symbol L); conditions: 320 g/ha, 3 weeks after application
Procedure, shortened: as §4

Amaranthus retroflexus = test: Test Example 5: herbicidal effect by foliage application, plastic box (symbol N); conditions: 320 g/ha, 3 weeks after application
Procedure, shortened: as §4

Veronica persica = test: Test Example 5: herbicidal effect by foliage application, plastic box (symbol R); conditions: 320 g/ha, 3 weeks after application
Procedure, shortened: as §4

rapeseed [9] = test: Test Example 5: effect on crop by foliage application, plastic box (symbol g); conditions: 320 g/ha, 3 weeks after application
Procedure, shortened: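 Greenhouse test at 25° C. to 30° C. Seeds of crops and weeds were spot-sown in boxes of sterilized diluvial soil under roughly 1.5 cm soil cover, then grown for foliage treatment.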

| Structure (SMILES) | Herbicidal effect grade, B: Scirpus juncoides (Scirpus juncoides [1]) | Herbicidal effect grade, C: Monochoria vaginalis (Monochoria vaginalis [2]) | Herbicidal effect grade, B: Scirpus juncoides (Scirpus juncoides [3]) | Herbicidal effect grade, C: Monochoria vaginalis (Monochoria vaginalis [4]) | F: Digitaria ciliaris, herbicidal effect grade (Digitaria ciliaris) | H: Echinochloa crus-galli var. crus-galli, herbicidal effect grade [5] | L: Apera spica-venti, herbicidal effect grade (Apera spica-venti [6]) | g: rapeseed, effect on crop grade (rapeseed [7]) | G: Setaria viridis, herbicidal effect (criteria of Test Example 1) (Setaria viridis) | K: Lolium multiflorum Lam., herbicidal effect (criteria of Test Example 1) (Lolium multiflorum Lam.) | L: Apera spica-venti, herbicidal effect (criteria of Test Example 1) (Apera spica-venti [8]) | N: Amaranthus retroflexus, herbicidal effect (criteria of Test Example 1) (Amaranthus retroflexus) | R: Veronica persica, herbicidal effect (criteria of Test Example 1) (Veronica persica) | g: rapeseed, effect on crop (criteria of Test Example 1) (rapeseed [9]) | F (Digitaria ciliaris) herbicidal effect grade (Digitaria ciliaris) | H (Echinochloa crus-galli var. crus-galli) herbicidal effect grade [5] | G: Setaria viridis, herbicidal effect grade (Setaria viridis) | K: Lolium multiflorum Lam., herbicidal effect grade (Lolium multiflorum Lam.) | L: Apera spica-venti, herbicidal effect grade (Apera spica-venti [8]) | g: rapeseed, effect on crop grade (rapeseed [9]) | other results |
| --- | --- | --- | --- | --- | --- | --- | --- | --- | --- | --- | --- | --- | --- | --- | --- | --- | --- | --- | --- | --- | --- |
| CON=C(C)CC1CC(OS(=O)(=O)N(C)C)=C(c2c(C)cc(-c3ccc(F)cc3)cc2C)C1=O (mixture of isomers) [6-060] | 5 (Herbicidal ratio of 90% or more (almost completely withered)) | 5 (Herbicidal ratio of 90% or more (almost completely withered)) | 4 (Herbicidal ratio of 70% or higher and lower than 90%) | 4 (Herbicidal ratio of 70% or higher and lower than 90%) | 5 (Herbicidal ratio of 90% or more (almost completely withered)) | 4 (Herbicidal ratio of 70% or higher and lower than 90%) | 0 (Herbicidal ratio of 5% or lower (almost no effect)) | 0 (Herbicidal ratio of 5% or lower (almost no effect)) | 4 (Herbicidal ratio of 70% or higher and lower than 90%) | 5 (Herbicidal ratio of 90% or more (almost completely withered)) | 5 (Herbicidal ratio of 90% or more (almost completely withered)) | 4 (Herbicidal ratio of 70% or higher and lower than 90%) | 4 (Herbicidal ratio of 70% or higher and lower than 90%) | 5 (Herbicidal ratio of 90% or more (almost completely withered)) |  |  |  |  |  |  |  |
| CON=C(C)CC1CC(OC(=O)COc2ccccc2)=C(c2c(C)cc(-c3ccc(Cl)cc3)cc2OC)C1=O (stereo not drawn) [6-079] | 0 (Herbicidal ratio of 5% or lower (almost no effect)) | 2 (Herbicidal ratio of 20% or higher and lower than 40%) | 2 (Herbicidal ratio of 20% or higher and lower than 40%) | 3 (Herbicidal ratio of 40% or higher and lower than 70%) | 5 (Herbicidal ratio of 90% or more (almost completely withered)) | 5 (Herbicidal ratio of 90% or more (almost completely withered)) | 5 (Herbicidal ratio of 90% or more (almost completely withered)) | 0 (Herbicidal ratio of 5% or lower (almost no effect)) | 5 (Herbicidal ratio of 90% or more (almost completely withered)) | 5 (Herbicidal ratio of 90% or more (almost completely withered)) | 5 (Herbicidal ratio of 90% or more (almost completely withered)) | 0 (Herbicidal ratio of 5% or lower (almost no effect)) | 3 (Herbicidal ratio of 40% or higher and lower than 70%) | 4 (Herbicidal ratio of 70% or higher and lower than 90%) |  |  |  |  |  |  |  |
| CC(CC1CC(O)=C(c2c(C)cc(C)cc2C)C1=O)=NOCc1ccccc1 (stereo not drawn) [1-020] | 5 (Herbicidal ratio of 90% or more (almost completely withered)) | 4 (Herbicidal ratio of 70% or higher and lower than 90%) | 3 (Herbicidal ratio of 40% or higher and lower than 70%) | 2 (Herbicidal ratio of 20% or higher and lower than 40%) |  |  |  |  |  |  |  |  |  |  | 5 (Herbicidal ratio of 90% or more (almost completely withered)) | 5 (Herbicidal ratio of 90% or more (almost completely withered)) | 5 (Herbicidal ratio of 90% or more (almost completely withered)) | 5 (Herbicidal ratio of 90% or more (almost completely withered)) | 5 (Herbicidal ratio of 90% or more (almost completely withered)) | 4 (Herbicidal ratio of 70% or higher and lower than 90%) | L (Apera spica-venti) herbicidal effect grade (Apera spica-venti [6]): 5 (Herbicidal ratio of 90% or more (almost completely withered)); g (rapeseed) effect on crop grade (rapeseed [7]): 4 (Herbicidal ratio of 70% or higher and lower than 90%); R: Veronica persica, herbicidal effect grade (Veronica persica): 4 (Herbicidal ratio of 70% or higher and lower than 90%) |
| C#CCON=C(C)CC1CC(O)=C(c2c(C)cc(C)cc2C)C1=O (stereo not drawn) [1-019] | 5 (Herbicidal ratio of 90% or more (almost completely withered)) | 2 (Herbicidal ratio of 20% or higher and lower than 40%) | 5 (Herbicidal ratio of 90% or more (almost completely withered)) | 2 (Herbicidal ratio of 20% or higher and lower than 40%) |  |  |  |  |  |  |  |  |  |  | 5 (Herbicidal ratio of 90% or more (almost completely withered)) | 5 (Herbicidal ratio of 90% or more (almost completely withered)) | 5 (Herbicidal ratio of 90% or more (almost completely withered)) | 5 (Herbicidal ratio of 90% or more (almost completely withered)) | 5 (Herbicidal ratio of 90% or more (almost completely withered)) | 4 (Herbicidal ratio of 70% or higher and lower than 90%) | L (Apera spica-venti) herbicidal effect grade (Apera spica-venti [6]): 5 (Herbicidal ratio of 90% or more (almost completely withered)); g (rapeseed) effect on crop grade (rapeseed [7]): 4 (Herbicidal ratio of 70% or higher and lower than 90%); N: Amaranthus retroflexus, herbicidal effect grade (Amaranthus retroflexus): 2 (Herbicidal ratio of 20% or higher and lower than 40%); R: Veronica persica, herbicidal effect grade (Veronica persica): 4 (Herbicidal ratio of 70% or higher and lower than 90%) |
| CC(=O)C1CC(O)=C(c2c(C)cc(C)cc2C)C1=O (stereo not drawn) [8-001] | 0 (Herbicidal ratio of 5% or lower (almost no effect)) | 0 (Herbicidal ratio of 5% or lower (almost no effect)) | 0 (Herbicidal ratio of 5% or lower (almost no effect)) | 0 (Herbicidal ratio of 5% or lower (almost no effect)) |  |  |  |  |  |  |  |  |  |  |  |  | 1 (Herbicidal ratio of 5% or higher and lower than 20%) | 1 (Herbicidal ratio of 5% or higher and lower than 20%) | 0 (Herbicidal ratio of 5% or lower (almost no effect)) | 0 (Herbicidal ratio of 5% or lower (almost no effect)) | Herbicidal effect grade, F: Digitaria ciliaris (Digitaria ciliaris): 0 (Herbicidal ratio of 5% or lower (almost no effect)); Herbicidal effect grade, H: Echinochloa crus-galli var. crus-galli [5]: 0 (Herbicidal ratio of 5% or lower (almost no effect)); Herbicidal effect grade, L: Apera spica-venti (Apera spica-venti [6]): 0 (Herbicidal ratio of 5% or lower (almost no effect)); Effect on crop grade, g: rapeseed (rapeseed [7]): 0 (Herbicidal ratio of 5% or lower (almost no effect)); N: Amaranthus retroflexus, herbicidal effect grade (Amaranthus retroflexus): 0 (Herbicidal ratio of 5% or lower (almost no effect)) |
| CCc1cc(-c2ccc(Cl)cc2)cc(C)c1C1=C(OC(=O)N2CCOCC2)CC(CC(C)=NOC)C1=O (mixture of isomers) [6-064] | 0 (Herbicidal ratio of 5% or lower (almost no effect)) | 0 (Herbicidal ratio of 5% or lower (almost no effect)) | 0 (Herbicidal ratio of 5% or lower (almost no effect)) | 0 (Herbicidal ratio of 5% or lower (almost no effect)) | 5 (Herbicidal ratio of 90% or more (almost completely withered)) | 5 (Herbicidal ratio of 90% or more (almost completely withered)) | 5 (Herbicidal ratio of 90% or more (almost completely withered)) | 0 (Herbicidal ratio of 5% or lower (almost no effect)) | 5 (Herbicidal ratio of 90% or more (almost completely withered)) | 5 (Herbicidal ratio of 90% or more (almost completely withered)) | 5 (Herbicidal ratio of 90% or more (almost completely withered)) |  | 4 (Herbicidal ratio of 70% or higher and lower than 90%) | 3 (Herbicidal ratio of 40% or higher and lower than 70%) |  |  |  |  |  |  |  |
